Source: paper PMC8769378, “Underlining the Importance of Peripheral Protic Functional Groups to Enhance the Proton Exchange of Gd-Based MRI Contrast Agents” (Inorganic Chemistry, 2021)

Columns and labels:
[1] = Fit of relaxivity vs pH profiles: proton exchange kinetic and relaxation parameters; assay type: physicochemical; conditions: 0.15 M NaCl, 298 K
Procedure: At pH >3, the r1 values of GdL2 decrease with the increase of pH from 6.6 mM^–1 s^–1 to reach a plateau of 5.1 mM^–1 s^–1 around pH = 7.5. A further increase of the pH results in the slight increase of r1 reaching a maximum around pH = 9.5. Finally, at pH >9.5, another small decrease in r1 is observed. On the other hand, in the case of GdL1, the r1 values are independent from the pH in the range 4.0–7.5, whereas at pH >8.0, r1 increases up to 5.2 mM^–1 s^–1. The r1 values of GdL1 were measured in the pH range 4–10 in order to avoid the hydrolysis of the methyl ester. […] Then, the overall relaxivity, r1, is given by eq 1: [drawing 1] 1 where r1^is, r1^os, and r1^pr are the relaxivity components due to the inner and outersphere water molecules and the −OH group, respectively. r1^pr can be expressed as follows:[26]−[28] [drawing 2] 2
According to the proposed reaction mechanism, the rate of acid-catalyzed proton exchange of GdL2 and Gd(HL2) is vH = kH[H3O^+][GdL2] and vH = kH[H3O^+][Gd(HL2)], where the kH rate constant characterizes the acid-catalyzed proton exchange processes of GdL2 and Gd(HL2) species. Because of the fast internal rearrangement, the alcoholic −OH and −COOH protons cannot be distinguished, and their lifetime is τp = (kH[H^+])^−1 in both cases. The rate of the base-catalyzed exchange between the alcoholic −OH proton of GdL1 and GdL2 and the bulk is vOH = kOH[OH^–][GdL] and τp = (kOH [OH^–])^−1, where the rate constant kOH characterizes the base-catalyzed proton exchange process for GdL1 and GdL2. Both acid- and base-catalyzed exchange mechanisms require the diffusion-controlled formation of an H-bonded complex and subsequently the rapid separation of the corresponding conjugate acid and base.[29] By considering the proposed reaction mechanism, eq 2 can be rewritten as follows: [drawing 3] 3 where αH = KGdLH–1[H^+] + KGdHLKGdLH–1[H^+]^2, ^GdHLr1^is+os, ^GdLr1^is+os, and ^GdLH–1r1^is+os are the sum of r1^is and r1^os for GdHL, GdL, and GdLH–1 species, respectively. Whereas for GdL2 the experimental data (Figure 1) were fitted to eq 3 (Table 2), in the case of GdL1, eq 3 was modified to account for the formation of GdL1 and Gd(L1)H–1 species and the base-catalyzed exchange of the −OH proton. Thus, the first and fourth terms and kH[H^+] of the denominator in the last term in the brackets were not considered.
Proton relaxation measurements (1/T1) and the resulting 1/T1 NMRD profiles were measured on a fast-field cycling (FFC) Stelar SmarTracer relaxometer over a continuum of magnetic field strengths from 0.000 24 to 0.25 T (corresponding to 0.01–10 MHz proton Larmor frequencies). The relaxometer operates under computer control with an absolute uncertainty in 1/T1 of ±1%. […] Furthermore, the real temperature inside the probe head was additionally monitored by a Fluke 52 k/j digital thermometer (Fluke, Zürich, Switzerland). The gadolinium concentration was determined by measuring the bulk magnetic susceptibility shifts of the t-BuOH ^1H NMR signal. Additional data in the 20–120 MHz frequency range were obtained with a high field relaxometer (Stelar) equipped with the HTS-110 3T metrology cryogen-free superconducting magnet. […] The pH-dependent relaxivity measurements of GdL1 and GdL2 complexes were carried out by direct titration of the samples (GdL2, 3.0 < pH < 12.5; GdL1, 4 < pH < 10). The pH was adjusted by the stepwise addition of concentrated NaOH or HCl solution. […]

[2] = Protonation constants of the ligands by pH potentiometry; assay type: physicochemical; conditions: I = 0.15 M NaCl, 298 K
Excerpt: The metal complexes of biomedical interest must show a high in vivo stability, which includes high thermodynamic stability and kinetic inertness to allow targeting applications and to avoid possible toxic effects derived by metal ion and ligand release via transmetalation or transchelation reactions.[2],[3],[13] The protonation constants of L2 as well as the stability and the protonation constants of GdL2 and those of the most important endogenous divalent metal complexes (Ca^II-, Zn^II-, and Cu^II) were determined by pH potentiometry (Table 1 and Table S1). In the case of GdL1, we were interested in determining the dissociation constant of the hydroxyl group that was measured also by pH potentiometry (Table 1). Experimental details and the definitions and equations used for the evaluation of the equilibrium and kinetic data are summarized in the SI.
The chemicals used for the experiments were of the highest analytical grade. The concentrations of the CaCl2, ZnCl2, CuCl2, and GdCl3 solutions were determined by complexometric titration with standardized Na2H2EDTA and xylenol orange (ZnCl2, and GdCl3), murexid (CuCl2), and Patton and Reeder (CaCl2) as indicators. The concentration of the H3L1 and H4L2 was determined by pH potentiometric titration in the presence and absence of a large (40-fold) excess of CaCl2. The pH potentiometric titrations were performed with standardized 0.2 M NaOH.
For the pH measurements and titrations, the Metrohm 888 Titrando titration workstation Metrohm-6.0234.110 combined electrode was used. Equilibrium measurements were carried out at a constant ionic strength (0.15 M NaCl) in 6 mL samples at 25 °C. The solutions were stirred, and N2 was bubbled through them. The titrations were made in the pH range 1.7–12.0. KH-phthalate (pH = 4.005) and borax (pH = 9.177) buffers were used to calibrate the pH meter. For the calculation of [H^+] from the measured pH values, the method proposed by Irving et al. was used as follows.[34] A 0.01 M HCl solution was titrated with standardized NaOH solution at 0.15 M NaCl ionic strength. The differences (A) between the measured (pHread) and calculated (−log[H^+]) pH values were used to obtain the equilibrium H^+ concentration from the pH values measured in the titration experiments (A = 0.024). For the equilibrium calculations, the stoichiometric water ionic product (pKw) was also needed to calculate [OH^–] values under basic conditions. The VNaOH–pHread data pairs of the HCl–NaOH titration obtained in the pH range 10.5–12.0 were used to calculate the pKw value (pKw = 13.79).

| log K5^H ([2]; first line headed log K5^H) | log K1^H ([2]; ligand protonation constant) | log K2^H ([2]; ligand protonation constant) | log K3^H ([2]; ligand protonation constant) | log K4^H ([2]; ligand protonation constant) | log K5^H ([2]; second line headed log K5^H (sixth constant)) | SMILES | ^GdHLr1^is+os ([1]; 20 MHz) [mM^–1 s^–1] | ^GdLH–1r1^is+os ([1]; 20 MHz) [mM^–1 s^–1] | ^GdLr1^is+os ([1]; 20 MHz) [mM^–1 s^–1] | kH × 10^–11 ([1]; acid-catalyzed proton exchange) [M^–1 s^–1] | kOH × 10^–10 ([1]; base-catalyzed proton exchange) [M^–1 s^–1] |
| --- | --- | --- | --- | --- | --- | --- | --- | --- | --- | --- | --- |
| – | – | – | – | – | – | O=C([O-])CN1CCN(CC(=O)[O-])CCN(CC(O)C(=O)O)CCN(CC(=O)[O-])CC1.[Gd+3] (centres unmarked) [GdL2] | 5.11 ± 0.08 | 4.93 ± 0.03 | 4.85 ± 0.04 | 1.5 ± 0.2 | 0.17 ± 0.04 |
| 2.47 (4) | 8.95 (3) | 8.95 (2) | 4.22 (3) | 3.74 (3) | 1.75 (4) | O=C(O)CN1CCN(CC(=O)O)CCN(C[C@@H](O)C(=O)O)CCN(CC(=O)O)CC1 [L2, (R)2,2′,2″-(10-(2-Carboxy-2-hydroxyethyl)-1,4,7,10-tetraazacyclododecane-1,4,7-triyl) Triacetic Acid] | – | – | – | – | – |
